Measurements taken from patent US8158621B2, “Methods of treating or preventing autoimmune diseases with 2,4-pyrimidinediamine compounds” (Rigel Pharmaceuticals, Inc., priority 2002, dated 2012).
pIC50: −log10 of the molar value.

Tested on: Human Jurkat T-cells (clone N)
Assay: Jurkat T-cell activation (anti-TCR, CD69 upregulation)
Type: cell-based
Settings: not given
Method in brief: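 Jurkat cells in RPMI + 5% FBS preincubated with compound 1 h at 37 °C, then stimulated with anti-TCR C305 at 500 ng/ml for 20 h. CD69 surface expression stained with anti-CD69-APC and read by flow cytometry; IC50 versus solvent-only control.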

pIC50	Compound
5.46	CNC(=O)COc1cccc(Nc2ncc(F)c(Nc3cccc(C(C)C)c3)n2)c1 [Compound R940288]
4.60	CNC(=O)COc1cccc(Nc2ncc(F)c(Nc3cccc(C(N)=O)c3)n2)c1 [Compound R940299]
< 5.00	O=C(COc1cccc(Nc2ncc(F)c(Nc3ccc4c(c3)C(=O)OC4)n2)c1)NCC(O)CO (centres unmarked) [Compound R940293]
5.41	Fc1cnc(Nc2ccc3c(c2)OCCO3)nc1Nc1ccc2[nH]ncc2c1 [Compound R935267]
< 5.00	COc1ccc(Nc2ncc([N+](=O)[O-])c(Nc3ccc(OC)c(OC)c3)n2)cc1OC [Compound R940089]
5.55	CON=C(N)COc1ccc(Nc2ncc(F)c(Nc3ccc(OCC(N)=NOC)cc3)n2)cc1 [Compound R945096]
< 5.00	CC(C)Oc1cccc(Nc2nc(Nc3ccc4oc(C(=O)N5CCOCC5)cc4c3)ncc2F)c1 [Compound R926489]
< 5.00	O=C(O)Cc1cccc(Nc2ncc(F)c(Nc3cccc(CC(=O)O)c3)n2)c1 [Compound R935117]
5.56	OCCOc1cccc(Nc2ncc(F)c(Nc3ccc(CO)c(CO)c3)n2)c1 [Compound R940292]
< 5.00	COC(=O)c1ccc(Cn2ncc3ccc(Nc4ncc(F)c(Nc5cccc(O)c5)n4)cc32)c(OC)c1 [Compound R935321]
4.91	CNC(=O)COc1cccc(Nc2ncc(F)c(Nc3cc(C)ccc3Cl)n2)c1 [Compound R926840]
< 5.00	O=C(NCCNCc1ccccc1)c1cc2cc(Nc3ncc(F)c(Nc4ccc5oc(C(=O)NCCNCc6ccccc6)cc5c4)n3)ccc2o1 [Compound R950169]
< 5.00	COc1cc(C(=O)NS(=O)(=O)c2ccccc2C)ccc1Cn1ncc2ccc(Nc3ncc(F)c(Nc4cccc(O)c4)n3)cc21 [Compound R935324]
5.46	CC(C)Oc1ccc(Nc2nc(Nc3ccc4cnn(CCCO)c4c3)ncc2F)cc1 [Compound R935290]
5.57	CNC(=O)COc1cccc(Nc2ncc(F)c(Nc3ccc(O)cc3)n2)c1 [Compound R950347]
< 5.00	N#CCOc1ccc(Nc2ncc(F)c(Nc3ccc4c(c3)OCCO4)n2)cc1 [Compound R926480]
< 5.00	COC(=O)COc1ccc(Nc2ncc(F)c(Nc3cccc(C#N)c3)n2)cc1 [Compound R945110]
6.90	CNC(=O)COc1cccc(Nc2ncc(F)c(Nc3ccc4c(c3)C(N)CCO4)n2)c1 (centres unmarked) [Compound R950368]
4.65	O=C(COc1cccc(Nc2ncc(F)c(Nc3cc(Cl)c(O)c(Cl)c3)n2)c1)N1CCOCC1 [Compound R950187]

pIC50	Compound
5.87	CNC(=O)COc1cccc(Nc2ncc(F)c(Nc3ccc4cc(C(=O)OC)[nH]c4c3)n2)c1 [Compound R926904]
6.06	CNC(=O)CCn1ncc2cc(Nc3ncc(F)c(Nc4ccc(OC(C)C)cc4)n3)ccc21 [Compound R935310]
6.91	CNCCOc1cccc(Nc2ncc(F)c(Nc3ccc4c(c3)OCCO4)n2)c1 [Compound R926510]
5.51	CNC(=O)COc1cccc(Nc2ncc(F)c(Nc3ccc(C#N)c(C)c3)n2)c1 [Compound R926851]
< 5.00	CC(C)(C)OC(=O)COc1ccc(Nc2ncc(F)c(Nc3ccc(OCC(=O)OC(C)(C)C)cc3)n2)cc1 [Compound R926574]
< 5.00	Fc1cnc(NCc2ccc3c(c2)OCO3)nc1NCc1ccc2c(c1)OCO2 [Compound R925770]
< 5.00	CNC(=O)Cn1ncc2ccc(Nc3nc(Nc4ccc(OC(C)C)cc4)ncc3F)cc21 [Compound R935224]
< 5.00	COc1cc(C(=O)NS(=O)(=O)c2ccccc2C)ccc1Cn1ncc2ccc(Nc3ncc(F)c(Nc4ccc(OC(C)C)cc4)n3)cc21 [Compound R935322]
5.02	CSc1nc2ccc(Nc3ncc(F)c(Nc4cccc(O)c4)n3)cc2s1 [Compound R950212]
5.36	CC(CO)Nc1cccc(Nc2ncc(F)c(Nc3cccc(NC(C)CO)c3)n2)c1 (centres unmarked) [Compound R950171]
5.43	O=C1COc2cc(Nc3nc(Nc4cccc(O)c4)ncc3F)ccc2N1 [Compound R908698]
< 5.00	CNC(=O)COc1cccc(Nc2nc(Nc3cccc(C(C)(C)C)c3)ncc2F)c1 [Compound R940267]
5.53	CNC(=O)COc1cccc(Nc2ncc(F)c(Nc3ccc4c(c3)OCC(=O)N4C)n2)c1 [Compound R909261]
< 5.00	COc1cc(Nc2nc(Nc3cccc(O)c3)ncc2F)c(OC)cc1Cl [Compound R926860]
5.32	C=CCNC(=O)Oc1cccc(Nc2nc(Nc3cccc(OCC(=O)NC)c3)ncc2F)c1 [Compound R926917]
5.25	COC(=O)Cn1ncc2ccc(Nc3nc(Nc4ccc5c(c4)OCCO5)ncc3F)cc21 [Compound R935219]
5.70	O=C(CNc1cccc(Nc2ncc(F)c(Nc3cccc(O)c3)n2)c1)N1CCNCC1 [Compound R950222]
5.03	CNC(=O)COc1cccc(Nc2ncc(F)c(Nc3ccc(OC)c(C(=O)OC)c3)n2)c1 [Compound R940300]

Compound	pIC50
Oc1cccc(Nc2ncc(F)c(Nc3cccc(O)c3)n2)c1 [Compound R926461]	5.47

Same assay, conditions: Homo sapiens

Compound	pIC50
O=[N+]([O-])c1ccc(F)c(Nc2ncc(F)c(Nc3cc([N+](=O)[O-])ccc3F)n2)c1 [Compound R950147]	4.83
O=[N+]([O-])c1ccc(O)c(Nc2ccnc(Nc3cc([N+](=O)[O-])ccc3O)n2)c1 [Compound R950155]	< 5.00
Cc1ccc([N+](=O)[O-])cc1Nc1ncc(F)c(Nc2cc([N+](=O)[O-])ccc2C)n1 [Compound R950146]	< 5.00

Same assay, conditions: Homo sapiens, Jurkat

pIC50	Compound
5.45	Oc1cccc(Nc2cc(Nc3cccc(O)c3)nc(Nc3cccc(O)c3)n2)c1 [Compound R926409]
< 5.00	CC(C)Oc1ccc(Nc2ncc(F)c(Nc3ccc(OC(C)C)cc3)n2)cc1 [Compound R926701]
< 5.00	Oc1cccc(Nc2nc(NCc3csc4ccccc34)ncc2F)c1 [Compound R945164]
< 5.00	Fc1cnc(Cl)nc1Nc1cccc(-c2nnc(-c3ccccc3)o2)c1 [Compound R926869]
< 5.00	Fc1cnc(Nc2ccc3c(c2)OCCO3)nc1NC1CCCCC1 [Compound R925794]
5.10	COC(=O)c1cc(Nc2nc(Nc3cccc(O)c3)ncc2Br)cn1C [Compound R935025]
4.90	Cc1cnc(NCCc2ccc(O)cc2)nc1NCCc1ccc(O)cc1 [Compound R926397]
5.12	CCNC(=O)Nc1cccc(Nc2ncc(F)c(Nc3cccc(NC(=O)NCC)c3)n2)c1 [Compound R945045]
4.84	COC(=O)c1ccc(Nc2ncc(F)c(Nc3ccc(C(=O)OC)c(OC)c3)n2)cc1OC [Compound R945065]
5.43	Fc1cnc(NCCCN2CCN(Cc3c(F)cccc3Cl)CC2)nc1Nc1ccc2c(c1)OCCO2 [Compound R926717]
< 5.00	Fc1cnc(Nc2ccc(-n3cnc(Cl)c3Cl)cc2)nc1Nc1ccc2c(c1)OCCO2 [Compound R926788]
5.17	COc1cccc(Nc2ncc(F)c(Nc3cccc(OC)c3)n2)c1 [Compound R926065]
5.57	OCc1cc2cc(Nc3ncc(F)c(Nc4cccc(O)c4)n3)ccc2o1 [Compound R926707]
< 5.00	CCOC(=O)CNc1nc(NCC(=O)OCC)c(N)c(C(=O)OCC)n1 [Compound R925865]
< 5.00	CC(C)(C)c1ccc(Nc2ncc(F)c(Nc3ccc(C(C)(C)C)cc3)n2)cc1 [Compound R926222]
